{"source": "ChEMBL document CHEMBL3045247", "about": "“GUANIDINES: FROM MOLECULE TO PRIMATE” (2004)", "design_in_all_cases": "scale not given: the % may be the effect or the level left", "key": {"Papio ursinus [1]": {"test_system": "Papio ursinus", "experiment": "Cardioprotective activity in Papio ursinus (baboon) ischaemic reperfusion injury model assessed as reduction of heart rate at 2 mg/kg, iv after 2 min relative to control", "type": "functional"}, "Papio ursinus [2]": {"test_system": "Papio ursinus", "experiment": "Cardioprotective activity in Papio ursinus (baboon) ischaemic reperfusion injury model assessed as reduction of diastolic blood pressure at 1 mg/kg, iv after 25 min", "type": "functional, Artery"}, "Papio ursinus [3]": {"test_system": "Papio ursinus", "experiment": "Cardioprotective activity in Papio ursinus (baboon) ischaemic reperfusion injury model assessed as reduction of diastolic blood pressure at 1 mg/kg, iv after 20 min", "type": "functional, Artery"}, "Papio ursinus [4]": {"test_system": "Papio ursinus", "experiment": "Cardioprotective activity in Papio ursinus (baboon) ischaemic reperfusion injury model assessed as reduction of diastolic blood pressure at 1 mg/kg, iv after 15 min", "type": "functional, Artery"}, "Papio ursinus [5]": {"test_system": "Papio ursinus", "experiment": "Cardioprotective activity in Papio ursinus (baboon) ischaemic reperfusion injury model assessed as reduction of diastolic blood pressure at 1 mg/kg, iv after 10 min", "type": "functional, Artery"}, "Papio ursinus [6]": {"test_system": "Papio ursinus", "experiment": "Cardioprotective activity in Papio ursinus (baboon) ischaemic reperfusion injury model assessed as reduction of diastolic blood pressure at 1 mg/kg, iv after 6 min", "type": "functional, Artery"}, "Papio ursinus [7]": {"test_system": "Papio ursinus", "experiment": "Cardioprotective activity in Papio ursinus (baboon) ischaemic reperfusion injury model assessed as reduction of diastolic blood pressure at 1 mg/kg, iv after 4 min", "type": "functional, Artery"}, "Papio ursinus [8]": {"test_system": "Papio ursinus", "experiment": "Cardioprotective activity in Papio ursinus (baboon) ischaemic reperfusion injury model assessed as reduction of diastolic blood pressure at 1 mg/kg, iv after 2 min", "type": "functional, Artery"}, "Papio ursinus [9]": {"test_system": "Papio ursinus", "experiment": "Cardioprotective activity in Papio ursinus (baboon) ischaemic reperfusion injury model assessed as reduction of heart rate at 2 mg/kg, iv after 4 min relative to control", "type": "functional"}, "Papio ursinus [10]": {"test_system": "Papio ursinus", "experiment": "Cardioprotective activity in Papio ursinus (baboon) ischaemic reperfusion injury model assessed as reduction of diastolic blood pressure at 2 mg/kg, iv after 25 min", "type": "functional, Artery"}, "Papio ursinus [11]": {"test_system": "Papio ursinus", "experiment": "Cardioprotective activity in Papio ursinus (baboon) ischaemic reperfusion injury model assessed as reduction of diastolic blood pressure at 2 mg/kg, iv after 20 min", "type": "functional, Artery"}, "Papio ursinus [12]": {"test_system": "Papio ursinus", "experiment": "Cardioprotective activity in Papio ursinus (baboon) ischaemic reperfusion injury model assessed as reduction of diastolic blood pressure at 2 mg/kg, iv after 15 min", "type": "functional, Artery"}, "Papio ursinus [13]": {"test_system": "Papio ursinus", "experiment": "Cardioprotective activity in Papio ursinus (baboon) ischaemic reperfusion injury model assessed as reduction of diastolic blood pressure at 2 mg/kg, iv after 10 min", "type": "functional, Artery"}, "Papio ursinus [14]": {"test_system": "Papio ursinus", "experiment": "Cardioprotective activity in Papio ursinus (baboon) ischaemic reperfusion injury model assessed as reduction of diastolic blood pressure at 2 mg/kg, iv after 6 min", "type": "functional, Artery"}, "Papio ursinus [15]": {"test_system": "Papio ursinus", "experiment": "Cardioprotective activity in Papio ursinus (baboon) ischaemic reperfusion injury model assessed as reduction of diastolic blood pressure at 2 mg/kg, iv after 4 min", "type": "functional, Artery"}, "Papio ursinus [16]": {"test_system": "Papio ursinus", "experiment": "Cardioprotective activity in Papio ursinus (baboon) ischaemic reperfusion injury model assessed as reduction of systolic blood pressure at 1 mg/kg, iv after 25 min", "type": "functional, Artery"}, "Papio ursinus [17]": {"test_system": "Papio ursinus", "experiment": "Cardioprotective activity in Papio ursinus (baboon) ischaemic reperfusion injury model assessed as reduction of systolic blood pressure at 2 mg/kg, iv after 25 min", "type": "functional, Artery"}, "Papio ursinus [18]": {"test_system": "Papio ursinus", "experiment": "Cardioprotective activity in Papio ursinus (baboon) ischaemic reperfusion injury model assessed as reduction of systolic blood pressure at 2 mg/kg, iv after 20 min", "type": "functional, Artery"}, "Papio ursinus [19]": {"test_system": "Papio ursinus", "experiment": "Cardioprotective activity in Papio ursinus (baboon) ischaemic reperfusion injury model assessed as reduction of systolic blood pressure at 2 mg/kg, iv after 15 min", "type": "functional, Artery"}, "Papio ursinus [20]": {"test_system": "Papio ursinus", "experiment": "Cardioprotective activity in Papio ursinus (baboon) ischaemic reperfusion injury model assessed as reduction of systolic blood pressure at 2 mg/kg, iv after 6 min", "type": "functional, Artery"}, "Papio ursinus [21]": {"test_system": "Papio ursinus", "experiment": "Cardioprotective activity in Papio ursinus (baboon) ischaemic reperfusion injury model assessed as reduction of systolic blood pressure at 2 mg/kg, iv after 10 min", "type": "functional, Artery"}, "Papio ursinus [22]": {"test_system": "Papio ursinus", "experiment": "Cardioprotective activity in Papio ursinus (baboon) ischaemic reperfusion injury model assessed as reduction of systolic blood pressure at 2 mg/kg, iv after 4 min", "type": "functional, Artery"}, "Papio ursinus [23]": {"test_system": "Papio ursinus", "experiment": "Cardioprotective activity in Papio ursinus (baboon) ischaemic reperfusion injury model assessed as reduction of systolic blood pressure at 2 mg/kg, iv after 2 min", "type": "functional, Artery"}, "Papio ursinus [24]": {"test_system": "Papio ursinus", "experiment": "Cardioprotective activity in Papio ursinus (baboon) ischaemic reperfusion injury model assessed as reduction of heart rate at 1 mg/kg, iv after 25 min relative to control", "type": "functional"}, "Papio ursinus [25]": {"test_system": "Papio ursinus", "experiment": "Cardioprotective activity in Papio ursinus (baboon) ischaemic reperfusion injury model assessed as reduction of heart rate at 1 mg/kg, iv after 20 min relative to control", "type": "functional"}, "Papio ursinus [26]": {"test_system": "Papio ursinus", "experiment": "Cardioprotective activity in Papio ursinus (baboon) ischaemic reperfusion injury model assessed as reduction of heart rate at 1 mg/kg, iv after 15 min relative to control", "type": "functional"}, "Papio ursinus [27]": {"test_system": "Papio ursinus", "experiment": "Cardioprotective activity in Papio ursinus (baboon) ischaemic reperfusion injury model assessed as reduction of heart rate at 1 mg/kg, iv after 10 min relative to control", "type": "functional"}, "Papio ursinus [28]": {"test_system": "Papio ursinus", "experiment": "Cardioprotective activity in Papio ursinus (baboon) ischaemic reperfusion injury model assessed as reduction of heart rate at 1 mg/kg, iv after 6 min relative to control", "type": "functional"}, "Papio ursinus [29]": {"test_system": "Papio ursinus", "experiment": "Cardioprotective activity in Papio ursinus (baboon) ischaemic reperfusion injury model assessed as reduction of heart rate at 1 mg/kg, iv after 4 min relative to control", "type": "functional"}, "Papio ursinus [30]": {"test_system": "Papio ursinus", "experiment": "Cardioprotective activity in Papio ursinus (baboon) ischaemic reperfusion injury model assessed as reduction of diastolic blood pressure at 2 mg/kg, iv after 2 min", "type": "functional, Artery"}, "Papio ursinus [31]": {"test_system": "Papio ursinus", "experiment": "Cardioprotective activity in Papio ursinus (baboon) ischaemic reperfusion injury model assessed as reduction of systolic blood pressure at 1 mg/kg, iv after 20 min", "type": "functional, Artery"}, "Papio ursinus [32]": {"test_system": "Papio ursinus", "experiment": "Cardioprotective activity in Papio ursinus (baboon) ischaemic reperfusion injury model assessed as reduction of systolic blood pressure at 1 mg/kg, iv after 15 min", "type": "functional, Artery"}, "Papio ursinus [33]": {"test_system": "Papio ursinus", "experiment": "Cardioprotective activity in Papio ursinus (baboon) ischaemic reperfusion injury model assessed as reduction of systolic blood pressure at 1 mg/kg, iv after 10 min", "type": "functional, Artery"}, "Papio ursinus [34]": {"test_system": "Papio ursinus", "experiment": "Cardioprotective activity in Papio ursinus (baboon) ischaemic reperfusion injury model assessed as reduction of systolic blood pressure at 1 mg/kg, iv after 6 min", "type": "functional, Artery"}, "Papio ursinus [35]": {"test_system": "Papio ursinus", "experiment": "Cardioprotective activity in Papio ursinus (baboon) ischaemic reperfusion injury model assessed as reduction of systolic blood pressure at 1 mg/kg, iv after 4 min", "type": "functional, Artery"}, "Papio ursinus [36]": {"test_system": "Papio ursinus", "experiment": "Cardioprotective activity in Papio ursinus (baboon) ischaemic reperfusion injury model assessed as reduction of systolic blood pressure at 1 mg/kg, iv after 2 min", "type": "functional, Artery"}, "Papio ursinus [37]": {"test_system": "Papio ursinus", "experiment": "Cardioprotective activity in Papio ursinus (baboon) ischaemic reperfusion injury model assessed as reduction of heart rate at 1 mg/kg, iv after 2 min relative to control", "type": "functional"}, "Papio ursinus [38]": {"test_system": "Papio ursinus", "experiment": "Cardioprotective activity in Papio ursinus (baboon) ischaemic reperfusion injury model assessed as reduction of heart rate at 2 mg/kg, iv after 25 min relative to control", "type": "functional"}, "Papio ursinus [39]": {"test_system": "Papio ursinus", "experiment": "Cardioprotective activity in Papio ursinus (baboon) ischaemic reperfusion injury model assessed as reduction of heart rate at 2 mg/kg, iv after 20 min relative to control", "type": "functional"}, "Papio ursinus [40]": {"test_system": "Papio ursinus", "experiment": "Cardioprotective activity in Papio ursinus (baboon) ischaemic reperfusion injury model assessed as reduction of heart rate at 2 mg/kg, iv after 15 min relative to control", "type": "functional"}, "Papio ursinus [41]": {"test_system": "Papio ursinus", "experiment": "Cardioprotective activity in Papio ursinus (baboon) ischaemic reperfusion injury model assessed as reduction of heart rate at 2 mg/kg, iv after 10 min relative to control", "type": "functional"}, "Papio ursinus [42]": {"test_system": "Papio ursinus", "experiment": "Cardioprotective activity in Papio ursinus (baboon) ischaemic reperfusion injury model assessed as reduction of heart rate at 2 mg/kg, iv after 6 min relative to control", "type": "functional"}}}
{"smiles": "COc1ccc(/C=N/NC(=N)N)c(Cl)c1OC", "values": [{"measurement": "Activity", "setting": "Papio ursinus [1]", "value": 12.95, "unit": "%"}, {"measurement": "Activity", "setting": "Papio ursinus [2]", "value": 20.31, "unit": "%"}, {"measurement": "Activity", "setting": "Papio ursinus [3]", "value": 31.36, "unit": "%"}, {"measurement": "Activity", "setting": "Papio ursinus [4]", "value": 15.16, "unit": "%"}, {"measurement": "Activity", "setting": "Papio ursinus [5]", "value": 7.58, "unit": "%"}, {"measurement": "Activity", "setting": "Papio ursinus [6]", "value": 3.8, "unit": "%"}, {"measurement": "Activity", "setting": "Papio ursinus [7]", "value": 2.67, "unit": "%"}, {"measurement": "Activity", "setting": "Papio ursinus [8]", "value": 0.02, "unit": "%"}, {"measurement": "Activity", "setting": "Papio ursinus [9]", "value": 17.1, "unit": "%"}, {"measurement": "Activity", "setting": "Papio ursinus [10]", "value": 2.78, "unit": "%"}, {"measurement": "Activity", "setting": "Papio ursinus [11]", "value": 4.9, "unit": "%"}, {"measurement": "Activity", "setting": "Papio ursinus [12]", "value": 2.2, "unit": "%"}, {"measurement": "Activity", "setting": "Papio ursinus [13]", "value": 1.02, "unit": "%"}, {"measurement": "Activity", "setting": "Papio ursinus [14]", "value": 1.78, "unit": "%"}, {"measurement": "Activity", "setting": "Papio ursinus [15]", "value": 4.24, "unit": "%"}, {"measurement": "Activity", "setting": "Papio ursinus [16]", "value": 16.22, "unit": "%"}, {"measurement": "Activity", "setting": "Papio ursinus [17]", "value": 9.54, "unit": "%"}, {"measurement": "Activity", "setting": "Papio ursinus [18]", "value": 8.48, "unit": "%"}, {"measurement": "Activity", "setting": "Papio ursinus [19]", "value": 6.84, "unit": "%"}, {"measurement": "Activity", "setting": "Papio ursinus [20]", "value": 5.72, "unit": "%"}, {"measurement": "Activity", "setting": "Papio ursinus [21]", "value": 7.45, "unit": "%"}, {"measurement": "Activity", "setting": "Papio ursinus [22]", "value": 3.1, "unit": "%"}, {"measurement": "Activity", "setting": "Papio ursinus [23]", "value": 5.24, "unit": "%"}, {"measurement": "Activity", "setting": "Papio ursinus [24]", "value": 18.28, "unit": "%"}, {"measurement": "Activity", "setting": "Papio ursinus [25]", "value": 15.6, "unit": "%"}, {"measurement": "Activity", "setting": "Papio ursinus [26]", "value": 15.47, "unit": "%"}, {"measurement": "Activity", "setting": "Papio ursinus [27]", "value": 15.96, "unit": "%"}, {"measurement": "Activity", "setting": "Papio ursinus [28]", "value": 14.6, "unit": "%"}, {"measurement": "Activity", "setting": "Papio ursinus [29]", "value": 10.77, "unit": "%"}, {"measurement": "Activity", "setting": "Papio ursinus [30]", "value": 10.1, "unit": "%"}, {"measurement": "Activity", "setting": "Papio ursinus [31]", "value": 10.56, "unit": "%"}, {"measurement": "Activity", "setting": "Papio ursinus [32]", "value": 9.36, "unit": "%"}, {"measurement": "Activity", "setting": "Papio ursinus [33]", "value": 3.62, "unit": "%"}, {"measurement": "Activity", "setting": "Papio ursinus [34]", "value": 0.26, "unit": "%"}, {"measurement": "Activity", "setting": "Papio ursinus [35]", "value": 0.3, "unit": "%"}, {"measurement": "Activity", "setting": "Papio ursinus [36]", "value": 0.02, "unit": "%"}, {"measurement": "Activity", "setting": "Papio ursinus [37]", "value": 5.33, "unit": "%"}, {"measurement": "Activity", "setting": "Papio ursinus [38]", "value": 27.74, "unit": "%"}, {"measurement": "Activity", "setting": "Papio ursinus [39]", "value": 19.52, "unit": "%"}, {"measurement": "Activity", "setting": "Papio ursinus [40]", "value": 19.68, "unit": "%"}, {"measurement": "Activity", "setting": "Papio ursinus [41]", "value": 18.88, "unit": "%"}, {"measurement": "Activity", "setting": "Papio ursinus [42]", "value": 18.96, "unit": "%"}]}
